This note sets out measurements from patent publication US9278930B2, “Methods for increasing the stabilization of hypoxia inducible factor-α” (Aerpio Therapeutics Inc., priority 2009, dated 2016).

Each structure is given as a SMILES string. Where two headings read alike, the source gives them in different places.

A word on the Solubility: it is how much of the substance goes into solution per volume.

For data set [1], the system named is phosphoglycerate kinase (PGK) expression. Nature of the data set: PGK expression in murine embryonic fibroblasts. The format is cell-based. Particulars: wild type murine embryonic fibroblasts; 1 μM, 10 μM (FIG. 12). The method, then:
FIG. 11 depicts the up regulation of phosphoglycerate kinase (PGK) expression in wild type murine embryonic fibroblasts as a result of treatment with compound a compound disclosed in Table VIII at dosages of 1 μM (E), 10 μM (F), and 50 μM (G) vs. wild type control (H) and the lack of up regulation of PGK expression in HIF-1 knock out cells as a result of treatment with a compound disclosed in Table VIII at dosages of 1 μM (A), 10 μM (B), and 50 μM (C) and HIF-1 knock out control (D). Both cell types were treated for 7 hours.

Data set [2] can be described thus: Solubility of salts in water (HPLC). The format is physicochemical. Here is the method: The formulator can determine the solubility of the pharmaceutically acceptable salts of the disclosed inhibitors by any method desirable. The following is a non-limiting example of a procedure for evaluating the solubility of a salt of a disclosed inhibitor. A suspension of tert-butyl-{[1-(4-chlorobenzyl)-3-hydroxy-2-oxo-1,2-dihydropyridin-4-yl]methyl}-piperazine-1-carboxylate methanesulfonate (26.6 mg) in distilled deionized water (3.0 mL) is sonicated for 20 min with water bath temperature under 25° C. The suspension is filtered to remove any insoluble salt. The clear filtrate solution (200 μL) is diluted with distilled deionized water (800 μL) and subjected to HPLC analysis. The following are results for the pharmaceutically acceptable salts outlined in Table VII above.

In the case of `O=c1c(O)cccn1Cc1cccc(Cl)c1` [Compound F2, 1-(3-chlorobenzyl)-3-hydroxypyridin-2(1H)-one], the “up regulation of phosphoglycerate kinase (PGK) expression” value in data set [1] was “up regulation”. Consider `CC(C)(C)OC(=O)N1CCN(Cc2ccn(Cc3ccc(Cl)cc3)c(=O)c2O)CC1` [Compound A41, tert-butyl 4-{[1-(4-chlorobenzyl)-3-hydroxy-2-oxo-1,2-dihydropyridin-4-yl]methyl}piperazine-1-carboxylate], for which the “Solubility” value in data set [2] (distilled deionized water, sonicated 20 min, under 25° C., HPLC, listed as Free base) was ~1 µg/mL. Consider `CC(C)(C)OC(=O)N1CCN(Cc2ccn(Cc3ccc(Cl)cc3)c(=O)c2O)CC1` [hydrogensulfonate, tert-butyl-{[1-(4-chlorobenzyl)-3-hydroxy-2-oxo-1,2-dihydropyridin-4-yl]methyl}-piperazine-1-carboxylate], for which the “Solubility” value in data set [2] is 13200 µg/mL.
